In PubChem BioAssay (NCI):
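GI50 marks 50% less growth. Definition used: TGI = concentration required for complete inhibition of growth.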

Legend:
Experiment in all cases: inhibition of tumour cell growth, NCI panel, 384-well format
[1] = tested on: ACHN renal
[2] = tested on: CCRF-CEM leukemia
[3] = tested on: EKVX NSCLC
[4] = tested on: HCT-15 colon
[5] = tested on: HL-60(TB) leukemia
[6] = tested on: HOP-62 NSCLC
[7] = tested on: HOP-92 NSCLC
[8] = tested on: MDA-MB-435 melanoma
[9] = tested on: OVCAR-4 ovarian
[10] = tested on: RPMI-8226 leukemia
[11] = tested on: SF-295 CNS
[12] = tested on: SNB-75 CNS
[13] = tested on: SR leukemia

In the case of `CC(C)(O)C1CCC(Nc2ccc3ncc(-c4cccc(C(F)(F)F)c4)n3n2)CC1` (stereo unspecified), the GI50 [1] is reported as 1630 nM, the TGI [1] is reported as 5.01 µM and the GI50 [2] is reported as 367 nM. The TGI [2] was 1560 nM, the GI50 [3] was 1670 nM and the TGI [3] was 5.66 µM. The GI50 [4] was 1120 nM, the TGI [4] was 2930 nM and the GI50 [5] was 641 nM. For the same molecule, the TGI [5] was 1880 nM, the GI50 [6] was 1510 nM and the TGI [6] was 3.6 µM. It also gave a GI50 [7] of 670 nM, a TGI [7] of 3.13 µM and a GI50 [8] of 1530 nM. It also gave a TGI [8] of 4.17 µM, a GI50 [9] of 994 nM and a TGI [9] of 4.82 µM. The GI50 [10] was 190 nM, the TGI [10] was 365 nM and the GI50 [11] was 1050 nM. It also gave a TGI [11] of 2400 nM, a GI50 [12] of 1450 nM and a TGI [12] of 4.14 µM. For the same molecule, the GI50 [13] was 588 nM and the TGI [13] was 1690 nM.
